System: Salmonella typhimurium
Test: Example 1: effect of pH buffering of acetic and propionic acid on antimicrobial activity in water
Assay type: cell-based
Conditions: for MIC at 4 Hr / MIC at 24 HR: Minimum Inhibitory Concentrations, by linear regression over 0.025-0.1% acid solutions
Experimental: Propionic and acetic acids were buffered with ammonium hydroxide to pHs ranging from 1 to 7. Acid contents of the buffered solutions were determined by a weight to weight ratio calculation to obtain the same acid content in the test solutions. […] The pHs of the deionized water solutions were recorded and any problems with solubility noted.
100 ul of a nutrient broth culture of Salmonella typhimurium was added to each dilution tube. After addition, tubes were vortexed and allowed to stand. At 4 and 24 hours after addition of the inoculum, 100 ul of the solution was plated on Standard Plate agar (triplicate plates). Plates were incubated at 37° C. for 24 hours prior to enumeration. The minimum effective dose of each acid was determined by linear regression.

[1] = Product Conc. 0.025 (% acid solution in water)
[2] = Product Conc. 0.05 (% acid solution in water)
[3] = Product Conc. 0.075 (% acid solution in water)
[4] = Product Conc. 0.1 (% acid solution in water)

SMILES | Salmonella at time Interval 4 hr % reduction [1] | Salmonella at time Interval 4 hr cfu/g [1] | Salmonella at time Interval 24 hr % reduction [1] | Salmonella at time Interval 24 hr cfu/g [1] | Salmonella at time Interval 4 hr % reduction [2] | Salmonella at time Interval 4 hr cfu/g [2] | Salmonella at time Interval 24 hr % reduction [2] | Salmonella at time Interval 24 hr cfu/g [2] | Salmonella at time Interval 4 hr % reduction [3] | Salmonella at time Interval 4 hr cfu/g [3] | Salmonella at time Interval 24 hr % reduction [3] | Salmonella at time Interval 24 hr cfu/g [3] | Salmonella at time Interval 4 hr % reduction [4] | Salmonella at time Interval 4 hr cfu/g [4] | Salmonella at time Interval 24 hr % reduction [4] | Salmonella at time Interval 24 hr cfu/g [4] | further results
CC(=O)O [Acetic pH 5, Acetic acid] | 16% | 1267 cfu/g | 16% | 993 cfu/g | 0% | 1533 cfu/g | 26% | 873 cfu/g | 9% | 1367 cfu/g | 32% | 805 cfu/g | 14% | 1300 cfu/g | 49% | 597 cfu/g | MIC at 4 Hr (pH 5): 0.238; MIC at 24 HR (pH 5): 0.210
CCC(=O)O [Propionic pH 1, Propionic acid] | 20% | 1200 cfu/g | 89% | 133 cfu/g | 39% | 923 cfu/g | 97% | 37 cfu/g | 65% | 530 cfu/g | 98% | 23 cfu/g | 70% | 450 cfu/g | 99% | 10 cfu/g | MIC at 4 Hr (pH 1): 0.131; MIC at 24 HR (pH 1): 0.066
CC(=O)O [Acetic pH 2, Acetic acid] | 39% | 920 cfu/g | 86% | 170 cfu/g | 46% | 817 cfu/g | 96% | 50 cfu/g | 55% | 673 cfu/g | 98% | 20 cfu/g | 55% | 670 cfu/g | 99% | 17 cfu/g | MIC at 4 Hr (pH 2): 0.142; MIC at 24 HR (pH 2): 0.067
CC(=O)O [Acetic pH 4, Acetic acid] | 29% | 1067 cfu/g | 54% | 543 cfu/g | 22% | 1167 cfu/g | 66% | 407 cfu/g | 27% | 1097 cfu/g | 78% | 263 cfu/g | 22% | 1167 cfu/g | 84% | 183 cfu/g | MIC at 4 Hr (pH 4): 0.207; MIC at 24 HR (pH 4): 0.096
CC(=O)O [Acetic pH 1, Acetic acid] | 41% | 883 cfu/g | 91% | 107 cfu/g | 50% | 750 cfu/g | 99% | 7 cfu/g | 59% | 617 cfu/g | 99% | 17 cfu/g | 65% | 520 cfu/g | 99% | 7 cfu/g | MIC at 24 HR (pH 1): 0.065
CCC(=O)O [Propionic pH 7, Propionic acid] | 0% | >1505 cfu/g | 0% | 1667 cfu/g | 0% | 1700 cfu/g | 0% | 1367 cfu/g | 0% | >1505 cfu/g | 0% | 1700 cfu/g | 0% | 1600 cfu/g | 0% | 1367 cfu/g | –
CCC(=O)O [Propionic pH 6, Propionic acid] | 0% | >1505 cfu/g | 0% | 1450 cfu/g | 7% | 1400 cfu/g | 10% | 1067 cfu/g | 0% | >1505 cfu/g | 0% | 1233 cfu/g | 0% | 1700 cfu/g | 0% | 1333 cfu/g | –
CC(=O)O [Acetic pH 6, Acetic acid] | 0% | 1500 cfu/g | 1% | 1167 cfu/g | 0% | 1767 cfu/g | 0% | 1400 cfu/g | 0% | 1667 cfu/g | 0% | 1400 cfu/g | 0% | 1633 cfu/g | 0% | 1433 cfu/g | –
CCC(=O)O [Propionic pH 5, Propionic acid] | 0% | >1505 cfu/g | 33% | 793 cfu/g | 7% | 1400 cfu/g | 20% | 943 cfu/g | 22% | 1167 cfu/g | 47% | 630 cfu/g | 46% | 817 cfu/g | 53% | 557 cfu/g | MIC at 4 Hr (pH 5): 0.170; MIC at 24 HR (pH 5): 0.165
